From patent publication US6703410B1, “Crystal forms of 3-(2,4-dichlorobenzyl)-2-methyl-n-(pentylsulfonyl)-3h-benzimidazole-5-carboxamide” (Fujisawa Pharmaceutical Co., Ltd., priority 1998, dated 2004)

Legend:
[1] = Relative crystallographic stability of the crystal forms; format: physicochemical; settings: comparison of crystal forms A, B and C
[2] = Transition of crystal form B into crystal form A in a heated acetone/water slurry, followed by IR spectrum; format: physicochemical; settings: suspended in acetone (51.2 g) and water (17.1 g), stirred while heating at 40° C.
Method: Crystal form B of 3-(2,4-dichlorobenzyl)-2-methyl-N-(pentylsulfonyl)-3H-benzimidazole-5-carboxamide (5.0 g) was suspended in a mixed solvent consisting of acetone (51.2 g) and water (17.1 g), and the resulting slurry was stirred while heating at 40° C. About 4 hours later, crystals in the slurry completely transitioned into those with the IR spectrum that agreed with the spectrum of crystal form A of 3-(2,4-dichlorobenzyl)-2-methyl-N-(pentylsulfonyl)-3H-benzimidazole-5-carboxamide.

| SMILES | crystallographic stability relative to the other crystal forms ([1]; listed as crystal form B) | time until crystals in the slurry completely transitioned into crystal form A [2] | crystallographic stability relative to the other crystal forms ([1]; listed as crystal form A) |
| --- | --- | --- | --- |
| CCCCCS(=O)(=O)NC(=O)c1ccc2nc(C)n(Cc3ccc(Cl)cc3Cl)c2c1 [Crystal form B, 3-(2,4-dichlorobenzyl)-2-methyl-N-(pentylsulfonyl)-3H-benzimidazole-5-carboxamide] | not as crystallographically stable as crystal form A | About 4 hours |  |
| CCCCCS(=O)(=O)NC(=O)c1ccc2nc(C)n(Cc3ccc(Cl)cc3Cl)c2c1 [Crystal form A, 3-(2,4-dichlorobenzyl)-2-methyl-N-(pentylsulfonyl)-3H-benzimidazole-5-carboxamide] |  |  | crystallographically more stable than crystal form B and C |
